Test results published in PMC11642940, “A New Demand for Improved Selectivity and Potency of Cyanine Dyes as Antiproliferative Agents Against Colorectal Cancer Cells” (Molecules, 2024).
Like-named read-outs stand apart in the source and are kept apart here.

How the values were obtained:
[1] = tested on: MCF-7 breast adenocarcinoma cells; experiment: MTT cell viability assay, MCF-7; settings: for viability at 10 µM / IC50: Homo sapiens, MCF7, 72 h; for viability at 10 µM: read-out: cell viability percentage in relation to control, MCF-7; for IC50: read-out: IC50 MCF-7, MCF-7, 72 h incubation, MTT; for SI MCF-7 (selectivity index versus NHDF): MCF-7 versus NHDF, 72 h
Protocol: (§1) To evaluate the anticancer potential of monomethine cyanine dyes 1–12, a cell proliferation study was conducted using the 3-(4,5-dimethylthiazol-2-yl)-2,5-diphenyltetrazolium bromide (MTT) assay. For this preliminary evaluation, a concentration of 10 µM for each dye was tested, with the well-established chemotherapy agent 5-fluorouracil (5-FU) serving as a positive control. The assay included normal human dermal fibroblasts (NHDF) as non-tumor cells, alongside tumor cell lines from colorectal (Caco-2), prostate (PC-3), and breast (MCF-7) adenocarcinomas.
(§2) The cell lines used in this study (Caco-2, MCF-7, PC-3, and NHDF) were obtained from the American Type Culture Collection (ATCC, Manassas, VA, USA) and cultured in 75 cm^2 culture flasks at 37 °C in a humidified atmosphere with 5% CO2 in a LEEC Culture Safe Precision CO2 Incubator. PC-3 cells were grown in Roswell Park Memorial Institute (RPMI) medium supplemented with 10% of inactivated Fetal Bovine Serum (FBS) and 1% of an antibiotic mixture (Sp; 10,000 U/mL of penicillin G and […] of streptomycin). MCF-7 and Caco-2 cell lines were both cultured using Dulbecco’s Modified Eagle Medium (DMEM). However, the medium for MCF-7 cells was complemented with 10% of inactivated FBS and 1% of antibiotic/antimycotic mixture (Ab; 10,000 U/mL of penicillin G, […] of streptomycin and 25 µg/mL of amphotericin B), and the medium for Caco-2 cells was supplemented with 20% of inactivated FBS and 1% of Sp. Finally, RPMI medium supplemented with 10% FBS, 2 mM of L-glutamine, 10 mM of 4-(2-hydroxyethyl)-1-piperazineethanesulfonic acid (HEPES), 1 mM of sodium pyruvate, and 1% of Ab was used to culture NHDF cells. The culture media were renewed every two to three days until near confluence was achieved. Then, cells were detached using a solution of 0.125 g/L of trypsin and 0.02 g/L of ethylenediaminetetracetic acid (EDTA), counted by the trypan blue method, resuspended, and adequately seeded to continue the culture in 75 cm^2 flasks or for the experiments described below. All manipulations were performed in a Labculture Class II A2 Biological Safety Cabinet.
(§3) After trypsinization, cells were seeded in 96-well culture plates (100 µL; 2 × 10^4 cells/mL), and after 48 h (for adherence), they were incubated with the compounds under study in the absence of light for a duration of 72 h. Then, the medium was removed, and fresh incomplete culture medium (without FBS and Ab or Sp) and MTT solution [5 mg/mL in phosphate buffer saline (PBS)] were added to each well, followed by 4 h of incubation. After this, the medium containing MTT was removed and DMSO was added to dissolve formazan crystals. The absorbance of each well at 570 nm was determined using a microplate spectrophotometer Bio-Rad (Hercules, CA, USA) xMark. Untreated cells were considered the negative control, and 5-FU, a clinically used drug, was considered the positive control. For data analysis, the relative cell proliferation relative to the negative control cells was calculated. For each cell viability study, at least two independent assays in quadruplicate were performed. Increasing concentrations of the compounds between 0.001 and 100 μM were used to determine the IC50 values.

[2] = tested on: normal human dermal fibroblasts (NHDF); experiment: MTT cell viability assay, NHDF; assay type: cell-based; settings: Homo sapiens, NHDF, read-out: IC50 NHDF
Protocol: (§4) The cell lines used in this study (Caco-2, MCF-7, PC-3, and NHDF) were obtained from the American Type Culture Collection (ATCC, Manassas, VA, USA) and cultured in 75 cm^2 culture flasks at 37 °C in a humidified atmosphere with 5% CO2 in a LEEC Culture Safe Precision CO2 Incubator. PC-3 cells were grown in Roswell Park Memorial Institute (RPMI) medium supplemented with 10% of inactivated Fetal Bovine Serum (FBS) and 1% of an antibiotic mixture (Sp; 10,000 U/mL of penicillin G and 100 mg/mL of streptomycin). MCF-7 and Caco-2 cell lines were both cultured using Dulbecco’s Modified Eagle Medium (DMEM). However, the medium for MCF-7 cells was complemented with 10% of inactivated FBS and 1% of antibiotic/antimycotic mixture (Ab; 10,000 U/mL of penicillin G, 100 mg/mL of streptomycin and 25 µg/mL of amphotericin B), and the medium for Caco-2 cells was supplemented with 20% of inactivated FBS and 1% of Sp. Finally, RPMI medium supplemented with 10% FBS, 2 mM of L-glutamine, 10 mM of 4-(2-hydroxyethyl)-1-piperazineethanesulfonic acid (HEPES), 1 mM of sodium pyruvate, and 1% of Ab was used to culture NHDF cells. The culture media were renewed every two to three days until near confluence was achieved. Then, cells were detached using a solution of 0.125 g/L of trypsin and 0.02 g/L of ethylenediaminetetracetic acid (EDTA), counted by the trypan blue method, resuspended, and adequately seeded to continue the culture in 75 cm^2 flasks or for the experiments described below. All manipulations were performed in a Labculture Class II A2 Biological Safety Cabinet.

[3] = MTT cell viability assay, NHDF; assay type: cell-based, human; settings: human, 10 µM, 72 h, mean ± SD, read-out: cell viability percentage in relation to control, NHDF
Protocol: as §4

[4] = tested on: PC-3 prostate adenocarcinoma cells; experiment: MTT cell viability assay, PC-3; settings: for viability at 10 µM: read-out: cell viability percentage in relation to control, PC-3; for SI PC-3 (selectivity index versus NHDF): PC-3 versus NHDF
Protocol: as §1, §2, §3

[5] = tested on: Caco-2 colorectal adenocarcinoma cells; experiment: MTT cell viability assay, Caco-2; settings: Homo sapiens, Caco-2, 72 h; for IC50: read-out: IC50 Caco-2; for viability at 10 µM: read-out: cell viability percentage in relation to control, Caco-2
Protocol: as §1, §2, §3

[6] = MTT cell viability assay, Caco-2; settings: human
Protocol: as §1, §2, §3

Caco-2 cells [7] = experiment: Caco-2 morphological analysis (optical microscopy); settings: 24 h
Protocol: Sorbitol and 5-FU were used as positive controls, while untreated cells served as the negative control.
Caco-2 cells near confluency were trypsinized, counted, and then seeded at 3 × 10^4 cells/mL (3 mL) in 35 mm cell culture dishes previously treated for tissue culture. After cell adherence (48 h), they were incubated with solutions under study for 72 h in the absence of light. The cellular morphology was verified every 24 h using a CKX41 SF inverted microscope (Olympus, Tokyo, Japan) with 10, 20, or 40× objectives. A DC6 V digital camera (Olympus, Tokyo, Japan) coupled to the microscope was used to capture cell imaging. The morphology of cells in the presence or absence of treatments was compared.

Caco-2 cells [8] = experiment: Apoptosis (sub-G1 events) by PI staining and flow cytometry; assay type: cell-based, human; settings: Caco-2, 600 mM, incubated for 24 h
Protocol: Given that apoptosis is a common programmed mechanism regulating cell death, characterized by DNA fragmentation and an increase in sub-G1 events, we employed the method described by Riccardi and Nicolleti to assess potential apoptosis induction using flow cytometry. Cyanine dyes 5 and 10 were tested at concentrations of 1 µM and 10 µM, respectively. As positive controls for apoptosis, 600 mM sorbitol and 10 µM 5-FU were used, with untreated cells serving as the negative control. […] In contrast, dye 10 induced a slight increase in apoptosis, reaching 1.7%. […] Apoptotic bodies were more evident in cells treated with dye 5 compared to dye 10, which is further supported by the slightly higher apoptosis induction in this assay.
Apoptosis (sub-G1 events) and cell cycle distribution were evaluated by propidium iodide (PI) staining and flow cytometry, as described by Riccardi and Nicolleti. […] Untreated cells were used as the negative control, and sorbitol and 5-FU were used as positive controls. After incubation, the supernatant was collected in a centrifuge tube, cells were washed with PBS, trypsinized and wells were once again washed with PBS. This cell suspension was maintained on ice, centrifugated at 300 g for 5 min, and then the pellet was resuspended in 0.5 mL of PBS. Cells were fixed by adding 4.5 mL of 70% ethanol cooled at −20 °C on ice and were stored at −20 °C for a period ranging from one to a few days. On the day of flow cytometry analysis, PBS was added to the fixed cell tubes, followed by centrifugation and removal of the supernatant. The pellet was resuspended in 0.5 mL of PBS and 0.5 mL of DNA extraction solution (192 mL of 0.2 M sodium phosphate and 8 mL of […], pH 7.8). After incubation for 5 min, the cells were once again centrifuged, the supernatant was removed, and the pellet was resuspended in 0.3 mL of staining solution (20 µg/mL of PI and 0.2 mg/mL of DNase-free RNase in PBS). Using a FACSCalibur flow cytometer (Becton Dickinson, Franklin Lakes, NJ, USA) with a 488 nm laser line, a minimum of 20,000 events were acquired and recorded using the BD CellQuestTM Pro 4.0.2 software, and analyzed with FlowJo 10.5.3 software. To exclude debris and necrotic cells, events with a lower diameter (forward scatter; FCS) and PI fluorescence (FL3) than the hypodiploid apoptotic cells were eliminated (Figures S1 and S2). Two independent experiments were performed. A Student’s t-test was performed to evaluate the statistical significance of the results.

[9] = 72 h incubation, MTT, absence of light
[10] = normal human dermal fibroblasts (NHDF)
[11] = Caco-2, SI Caco-2 (selectivity index, cancer versus non-cancer cell line NHDF), Caco-2 versus NHDF, 72 h
[12] = Homo sapiens, 72 h, read-out: IC50 PC-3, PC-3, 72 h incubation, MTT

SMILES | viability at 10 µM [1] [%] | IC50 [2, 9] [nM] | viability at 72 h, 10 µM [3, 10] [%] | viability at 10 µM ([4]; Homo sapiens, 72 h) [%] | melting point [°C] | IC50 [5] [nM] | viability at 10 µM [5] [%] | selectivity ratio at 72 h [6, 11] | IC50 ([2]; 72 h) [nM] | viability at 72 h, 10 µM [3] [%] | selectivity ratio at 72 h ([6]; Caco-2) | IC50 [1] [nM] | SI MCF-7 (selectivity index versus NHDF) [1] | IC50 [4, 12] [nM] | SI PC-3 (selectivity index versus NHDF) ([4]; 72 h) | IC50 ([4]; read-out: IC50 PC-3, PC-3, 72 h incubation, MTT) [nM] | morphological changes of Caco-2 cells (Caco-2 cells [7]) | apoptosis (sub-G1 events), % of cells (Caco-2 cells [8]) [%]
CCN1C(=Cc2n(CC)c3ccc([N+](=O)[O-])cc3[n+]2CC)Sc2ccccc21.[I-] [Dye 9, 1,3-Diethyl-2-((3-ethylbenzo[d]thiazol-2(3H)-ylidene)methyl)-5-nitro-1H-benzo[d]imidazol-3-ium iodide] | 52.9 ± 8.99 | 24500 | 38.2 ± 4.27 | 39.5 ± 7.97 | 219 to 220 | 1400 | 16.4 ± 0.81 | 17.5 | – | – | – | – | – | – | – | – | – | –
CN1C(=Cc2sc3ccccc3[n+]2C)C=Cc2ccccc21 [Dye 6, 3-Methyl-2-((1-methylquinolin-2(1H)-ylidene)methyl)benzo[d]thiazol-3-ium 4-methylbenzenesulfonate] | 2.49 ± 0.32 | 790 | 4.28 ± 1.24 | 4.98 ± 1.62 | – | 270 | 1.93 ± 0.78 | 2.9 | – | – | – | – | – | – | – | – | – | –
CN1C=C/C(=C/c2ccc3ccccc3[n+]2C)c2ccccc21 [Dye 12, 1-Methyl-4-((1-methylquinolin-2(1H)-ylidene)methyl)quinolin-1-ium 4-methylbenzenesulfonate] | 4.81 ± 1.56 | – | – | 9.02 ± 3.29 | – | 730 | 10.7 ± 0.43 | – | 630 | 5.72 ± 1.91 | 0.9 | – | – | – | – | – | – | –
CCN1C(=Cc2sc3cc(N)ccc3[n+]2CC)Sc2ccccc21.[I-] [Dye 11, 6-Amino-3-ethyl-2-((3-ethylbenzo[d]thiazol-2(3H)-ylidene)methyl)benzo[d]thiazol-3-ium iodide] | 7.65 ± 2.8 | 3000 | 16.1 ± 2.46 | 10.5 ± 4.24 | – | 170 | 9.6 ± 1.47 | 17.1 | – | – | – | 330 | 9.0 | 2100 | 1.4 | – | – | –
CCN1C(=Cc2sc3ccc(N)cc3[n+]2CC)Sc2ccccc21 [Dye 8, 5-Amino-3-ethyl-2-((3-ethylbenzo[d]thiazol-2(3H)-ylidene)methyl)benzo[d]thiazol-3-ium iodide] | 6.18 ± 1.48 | 950 | 5.52 ± 0.69 | 4.12 ± 1.71 | – | 740 | 5.21 ± 0.89 | 1.3 | – | – | – | – | – | – | – | – | – | –
CCCCCCCCCCN1C(=Cc2sc3ccccc3[n+]2C)Sc2ccccc21.[I-] [Dye 2, 3-Methyl-2-((3-decylbenzo[d]thiazol-2(3H)-ylidene)methyl)benzo[d]thiazol-3-ium iodide] | 0.62 ± 0.79 | 270 | 0.13 ± 0.43 | 0.62 ± 0.1 | 217 to 218 | 240 | 1.09 ± 0.47 | 1.1 | – | – | – | – | – | – | – | – | – | –
CN1C(=Cc2sc3ccccc3[n+]2C)Oc2ccccc21.Cc1ccc(S(=O)(=O)[O-])cc1 [Dye 3, 3-Methyl-2-((3-methylbenzo[d]oxazol-2(3H)-ylidene)methyl)benzo[d]thiazol-3-ium 4-methylbenzenesulfonate] | 3.04 ± 1.08 | 7530 | 23.9 ± 3.05 | 1.81 ± 0.31 | – | 90 | 5.81 ± 0.8 | 81.2 | – | – | – | – | – | 480 | 17.2 | 430 | – | –
CCN1C(=Cc2sc3ccc(NC(C)=O)cc3[n+]2CC)Sc2ccccc21.Cc1ccc(S(=O)(=O)[O-])cc1 [Dye 7, 5-Acetamido-3-ethyl-2-((3-ethylbenzo[d]thiazol-2(3H)-ylidene)methyl)benzo[d]thiazol-3-ium 4-methylbenzenesulfonate] | 11.8 ± 4.3 | 11600 | 29 ± 4.76 | 7.97 ± 4 | – | 140 | 9.89 ± 1.38 | 80.5 | – | – | – | 380 | 30.2 | 3560 | 3.3 | – | – | –
CCCCCN1C(=Cc2sc3ccccc3[n+]2C)Sc2ccccc21.[I-] [Dye 1, 3-Methyl-2-((3-pentylbenzo[d]thiazol-2(3H)-ylidene)methyl)benzo[d]thiazol-3-ium iodide] | 0.87 ± 1.05 | 550 | 0.84 ± 0.26 | 0.56 ± 0.12 | 254 to 258 | 360 | 1.37 ± 0.08 | 1.5 | – | – | – | – | – | – | – | – | – | –
CN1C(=Cc2n(C)c3ccccc3[n+]2C)Sc2ccccc21.[I-] [Dye 4, 1,3-Dimethyl-2-((3-methylbenzo[d]thiazol-2(3H)-ylidene)methyl)-1H-benzo[d]imidazol-3-ium iodide] | 21.6 ± 1.33 | 7930 | 23.1 ± 1.91 | 4.09 ± 0.61 | 270 to 272 | 230 | 7.15 ± 1.08 | 33.6 | – | – | – | – | – | 2850 | 2.8 | – | – | –
OC[C@@H](O)[C@@H](O)[C@H](O)[C@@H](O)CO [sorbitol, reference compound] | – | – | – | – | – | – | – | – | – | – | – | – | – | – | – | – | marked increase in apoptotic bodies | 37.9
